These results are taken from patent US20230109839A1, “THERAPEUTIC AGENT FOR TAUOPATHIES” (SUMITOMO PHARMA CO., LTD., priority 2020, published 2023).

“Also recorded” adds a separate entry of the source.

Assay [1] deals with T1, human Nav1.1 (Homo sapiens, UniProt P35498).
T1 construct: host or cells: HEK293
Description: Amplification of Nav1.1-derived voltage-gated sodium current (Nav1.1 current), automated patch clamp (Test 1). The following applies: HEK293, Concentration for evaluation 1 μM; HEK293 cell line stably expressing human Nav1.1; read-out: Nav1.1 current amplification rate (%). It is filed as cell-based. The essentials:
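Compound-induced change in ramp-evoked sodium current peak and AUC was expressed as 100×post/pre ratio minus 100. Recordings used automated patch clamp in voltage-clamp mode on a stable human Nav1.1 HEK293 line, including only cells above 500 pA. Compounds were delivered in extracellular fluid containing 1% DMSO.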
(In patch-clamp work, channel activity is measured electrically.)

For assay [2], the system named is APP-Tg mouse. Description: Evaluation of the cognitive function by novel object recognition test (NORT) in APP-Tg mice (Test 3). The following applies: for improvement of cognitive function (NORT), summary of the above results / improvement of cognitive function (NORT): APP-Tg mice; for improvement of cognitive function (NORT), summary of the above results: alone, with Elacridar or with ABT depending on the compound. It is filed as in vivo. On the set-up: key to Discrimination index: (novel − known search time)/(novel + known search time). Here is the method:
Test 3: Evaluation of the Cognitive Function by Novel Object Recognition Test (Hereinafter, Also Referred to as “NORT”)
The present test is for evaluating the improvement of cognitive function with the test compounds. When an APP-Tg mouse which is an AD (Alzheimer's disease) model mouse is evaluated by NORT, the memory for a familiar object decreases depending on the time interval between the first trial run (training) and the second trial run (test). For example, if the first trial run is done and 3 hours later the second one is done, there is no difference in the searching times between novel object and known object for the APP-Tg mouse, compared with a healthy mouse. Thus, the APP-Tg mouse suffers from significant amnesia.
The APP-Tg mouse used herein was prepared by constructing an expression cassette linked to human APP751 isoform to which Swedish (K670N/M671L) and Indiana (V717F) mutation were introduced at downstream of mouse Thy-1 promoter, then injecting the expression cassette into a mouse fertilized egg, and transplanting it to a host mouse. The prepared mouse presents with intracerebral AB accumulation and cognitive dysfunction from early on, and thus the mouse can be used for the evaluation of cognitive function. APP-Tg mouse has been also reported in Non-patent literature 6.
To the prepared APP-Tg mouse, the test compound was administered, and then the first trial run was done for the mouse 30 minutes after the intraperitoneal administration or after 10 days of mixed diet administration. The second trial run was done 3 hours after the first trial run, and the searching times between novel object and known object in the second trial were evaluated. The discrimination index was calculated from the searching time for novel object and known object in the second trial run, and the improvement of cognitive function of the test compound was confirmed by comparing the discrimination index with the test compound-unadministered group as an index of the cognitive function. The discrimination index was calculated by the following formula.
Discrimination index={(Searching time for novel object)−(Searching time for known object)}/{(Searching time for novel object)+(Searching time for known object)}
The present test can be also done with a combination with Elacridar (Tokyo Chemical Industry Co., Ltd.). Elacridar can inhibit P-gp and BCRP which are excretion transporters expressed in the blood-brain barrier and thereby Elacridar has the effect of improving the transferability of the test compound to the brain. Eracridal was orally administered to APP-Tg mice at 100 mg/kg 2 hours before the first trial run, and then the test compound was intraperitoneally administered to the mice 30 minutes before the first trial run according to the above method. And, the improvement of cognitive function was evaluated. The significant difference from the vehicle-administered group was determined using the parametric Dunnett multiple comparison test.
And, the present test can be also done with a combination with ABT (1-aminobenzotriazole) (Tokyo Chemical Industry Co., Ltd.). ABT has the effect of improving the blood concentration of the test compound by inhibiting CYP and suppressing metabolism. The test compound and ABT (1 mg/g-food) were administered with food to APP-Tg mice for 10 days, and then the improvement of cognitive function was evaluated according to the above method. The significant difference from the vehicle-administered group was determined using the parametric Dunnett multiple comparison test.

On to `CN(c1ncc2cnn(CC(=O)Nc3ccn4ncnc4c3)c2n1)C1CCCC1` [Example 795, 2-{6-[cyclopentyl(methyl)amino]-1H-pyrazolo[3,4-d]pyrimidin-1-yl}-N-([1,2,4]triazolo[1,5-a]pyridin-7-yl)acetamide], for which the activation at 1 µM in assay [1] came out at 111%. Besides, in assay [2], the “improvement of cognitive function (NORT), summary of the above results” value (from here on “improvement … of the above results”) was “some improvement of cognitive function”. The “improvement of cognitive function (NORT)” value in assay [2] (test compound and ABT (1 mg/g-food) administered with food for 10 days) was “some improvement of cognitive function”. Further, the Discrimination index in assay [2] (APP-Tg mouse, dose 0.2 mg/g-food for 10 days, with ABT 1 mg/g-food) came to 0.30; in assay [2] (APP-Tg mouse, dose 2 mg/g-food for 10 days, with ABT 1 mg/g-food), 0.27.
For the compound `CC1CCN(c2ccc(=O)n(CC(=O)Nc3ccc(C#N)cc3)n2)CC1` [Example 1, N-(4-Cyanophenyl)-2-[3-(4-methylpiperidin-1-yl)-6-oxopyridazin-1(6H)-yl]acetamide], the “improvement … of the above results” value in assay [2] was “some improvement of cognitive function”. Further, the Discrimination index was found to be 0.25 in assay [2] (APP-Tg mouse, 30 minutes before first trial run); 0.12 in assay [2] (APP-Tg mouse, dose 3 (mg/g i.p.), 30 minutes before first trial run); 0.22 in assay [2] (APP-Tg mouse, dose 10 (mg/g i.p.), 30 minutes before first trial run). For the same compound, in assay [2] (APP-Tg mouse, intraperitoneal doses of 10 and 30 mg/kg, parametric Dunnett multiple comparison test), the “improvement of cognitive function, significant difference from the vehicle-administered group” value is given as “statistically significant”. Besides, in assay [2] (APP-Tg mouse, intraperitoneally 3, 10 and 30 mg/kg 30 minutes before the first trial run), the “improvement of cognitive function (NORT, discrimination index)” value was “dose-dependent improvement of cognitive function”.
On to `CC1CC=C(c2cnc3cnn(CC(=O)Nc4ccn5ncnc5c4)c3n2)CC1` (stereo not shown) [Example 577, 2-[6-(4-methylcyclohex-1-en-1-yl)-1H-pyrazolo[3,4-b]pyrazin-1-yl]-N-([1,2,4]triazolo[1,5-a]pyridin-7-yl)acetamide], for which the activation at 1 µM in assay [1] was determined as 249%. Also, the “improvement of cognitive function (NORT)” value in assay [2] (Elacridar orally 100 mg/kg 2 hours before, test compound intraperitoneally 30 minutes before the first trial run, 100 mg/kg) is listed as “some improvement of cognitive function; also recorded: strong improvement of cognitive function”. The “improvement … of the above results” value in assay [2] was “some improvement of cognitive function”. Further, the Discrimination index is listed as 0.13 in assay [2] (APP-Tg mouse, dose 10 (mg/g i.p.), with Elacridar 100 mg/kg orally 2 hours before first trial run) and 0.21 in assay [2] (APP-Tg mouse, with Elacridar 100 mg/kg orally 2 hours before first trial run).
